Tested on: acustic trauma and threshold levels of rats
Test: Acoustic trauma (AT) in rats, hearing thresholds by auditory brainstem responses (ABR)
Assay type: in vivo, female Sprague Dawley Rats
Details: 10 mg/kg p.o. twice daily
Protocol: All animal experiments were performed due to the “German Law for the Protection of Laboratory animals” and were conducted due to the approved guidelines for Animal Health and Welfare. Experiments were performed with female Sprague Dawley Rats with a body weight between 300-400 g. For induction of acoustic trauma (AT) animals were kept under anesthezia (Ketamine, Xylazin, Rompun i.p. injection) and exposed to band noise or pure tones using a calibrated loudspeaker inside a reverberating chamber. The sound consists of a continuous 10 kHz pure-tone presented at 115 dB SPL. All acoustic stimuli were calibrated at the head level of the animal. Rats were treated with either Vardenafil [10 mg/kg/ p.o. dissolved in Ethanol/Solutol/Water (10/40/50) with an application volume of 5 ml/kg] or Placebo [Ethanol/Solutol/Water (10/40/50) with an application volume of 5 ml/kg] twice daily. The first treatment with Vardenafil or Placebo was i.e. 1 h prior to AT. The development and progression/remission of hearing impairment was detected by measuring the hearing thresholds by recordings of auditory brainstem responses (ABR). The threshold was determined by the lowest sound pressure that produced ARBs distinct from noise level. Threshold level analysis was performed prior to the acustic trauma (AT) (Measurement A in table 1), 3-5 hours post AT (Measurement B in table 1), once daily, from day 1 to day 7 post AT (Measurement C to I in table 1) and finally 3 weeks post AT (Measurement J in table 1).

Which “Hearing Threshold, Measurement B” value (3-5 hours post AT, first treatment 1 h prior to AT) does the source give for `CCCc1nc(C)c2c(=O)[nH]c(-c3cc(S(=O)(=O)N4CCN(CC)CC4)ccc3OCC)nn12` [Vardenafil, 2-(2-Ethoxy-5-(4-ethylpiperazin-1-yl-1-sulfonyl)phenyl)-5-methyl-7-propyl-3H-imidazo (5,1-f) (1,2,4)triazin-4-one] here?
The value was 38.6 dB SPL.

And the “Hearing Threshold, Measurement J” value (3 weeks post AT)?
Its value is 8.1 dB SPL.

What about the “Hearing Threshold, Measurement C” value (day 1 post AT) of the same compound?
The value was 28.3 dB SPL.

What about the “Hearing Threshold, Measurement D” value (day 2 post AT) of the same compound?
The value was 19.5 dB SPL.

And the “Hearing Threshold, Measurement E” value (day 3 post AT)?
Its value is 16.5 dB SPL.

And the “Hearing Threshold, Measurement F” value (day 4 post AT)?
The value was 14.3 dB SPL.

And the “Hearing Threshold, Measurement G” value (day 5 post AT)?
The value was 12.4 dB SPL.

What about the “Hearing Threshold, Measurement H” value (day 6 post AT) of the same compound?
Its value is 11.2 dB SPL.

What about the “Hearing Threshold, Measurement I” value (day 7 post AT) of the same compound?
The value was 10.9 dB SPL.

And the “Hearing Threshold, Measurement A” value (prior to acustic trauma (AT))?
The value was 5.9 dB SPL.
